According to patent US20220265775A1, “COMPOSITIONS AND METHODS FOR TREATING PULMONARY EDEMA OR LUNG INFLAMMATION” (priority 2019, published 2022):

Tests used:
[1] = system: Akt; assay: Western blot of Akt phosphorylation in RLE-6TN cells under hyperoxia; type: cell-based, rat; conditions: hyperoxia for 24 hours, T3 added for 20 minutes, vs room air control and hyperoxia alone
Protocol: FIG. 12. T3-induced increase activation of Akt by phosphorylation. (A) T3 augmented phosphorylation of Akt (p-Akt). […] (C) The PI3K inhibitor wortmannin blocked the T3-induced increase in total cellular amount of HO-1 protein.
The cells were lysed in lysis buffer containing 20 mM Tris HCl (pH 7.5), 150 mM NaCl, 1 mM EDTA, 1 mM EGTA, 1% (vol/vol) Triton X-100 with protease inhibitors (1 mM PMSF, 2 μg/ml pepstatin, and 10 μg/ml each of aprotinin and leupeptin), and phosphatase inhibitors (2.5 mM sodium pyrophosphate, 1 mM β-glycerophosphate, and 1 mM Na3VO4). The lysate was drawn 10 times through a 25-gauge needle on ice for further lysis and then was centrifuged at 13,000 rpm for 15 minutes at 4° C. The supernatant was collected, and the protein concentrations were determined by use of the BCA protein assay kit (Sigma-Aldrich, St. Louis, Mo.). Immediately after this step, equal amounts of protein were subjected to Western blotting analysis.

[2] = Single dose toxicokinetic (TK) study, intratracheal instillation of T3, serum total T3 by chemiluminescence assay; set-up: species or system Sprague-Dawley rats; conditions: Sprague-Dawley, rat; for AUC(0-t) / Cmax / Cmax_D / Tmax / Vz_F_obs: inhaled or intranasal
Protocol: Sixty animals (plus two spare animals/sex/group) were anesthetized and dosed via intratracheal instillation of test or control materials for five consecutive days. On the day after the last dose a terminal blood collection was performed for clinical pathology, after which animals were euthanized and a gross examination of all organs was performed by a board certified veterinary pathologist. Select tissues were collected for histopathology. […] Terminal blood collection was performed at two designated time points per animal up to 24 hours after administration for toxicokinetic evaluation. TK animals were euthanized without further evaluation after the final blood collection. All animals were acclimated for a minimum of seven days prior to the dosing procedure. Animals underwent baseline observations and examinations prior to the initiation of the study, and clinical observations and body weight monitoring were performed throughout the in-life portion of the study. All animals received the same dose volume (0.3 mL) of either test or control materials. This maximum feasible dose (MFD) is constrained by the maximum volume that can be safely and reproducibly (over five days) instilled into lungs of rats weighing 250 g to 350 g, which was determined in preliminary toxicology studies to be 0.3 mL. Actual doses delivered are reported as both μg/kg body weight and μg/gm wet lung weight. The toxicity phase animals were 72-135 days of age at the time of initial dosing. Males weighed between 256.52 g and 307.50 g with a mean±standard deviation of 286.74±11.77 g, and females weighed between 250.46 g and 299.01 g with a mean±standard deviation of 260.64±10.34 g. The TK phase animals were 68-144 days of age at the time of initial dosing. Males weighed between 261.23 g and 316.19 g; females weighed between 250.06 g and 280.32 g.
For toxicokinetic experiments, rats were anesthetized with combination of ketamine 40 mg/kg to 200 mg/kg and xylazine 1 mg/kg to 7 mg/kg, intraperitoneally (IP), to effect for dosing procedures, and dosed intratracheally with liothyronine sodium injection as previously described. Depending on the duration of time between dosing and the first or second blood collection time points, animals either had blood collected while still anesthetized under the injectable anesthetics, or if recovered, they were anesthetized with Isoflurane 2-5% and oxygen 1-1.5 L/minute by inhalation anesthesia via nose cone, as needed, to maintain adequate anesthesia depth (assessed by toe pinch). Topical proparicaine anesthetic ophthalmic solution was applied to each eye prior to performing the first blood collection and allowed time to take effect. Collection of serum samples for TK analysis was as described for serum chemistry samples above, and samples were stored at ≤−70° C. until assayed. Animals were euthanized with EUTHASOL (Virbac Corp., Fort Worth, Tex.) ≥86 mg/kg IP to effect following the final blood collection.
For assessment of serum T3 levels samples were sent to the Fairview University of Minnesota Medical Center East Bank Diagnostic Laboratory for analysis, a clinical laboratory certified by CLIA and CAP. Prior to sending serum samples to the analytical lab each sample was diluted 1:4 or 1:8 in normal (0.9%) saline. […] Samples were analyzed by a chemiluminescence assay for total triiodothyronine (T3).
An evaluation of the TK analysis was performed by Dick Brundage, PhD, University of Minnesota. Toxicokinetic parameters were estimated using Phoenix 64 WinNonlin pharmacokinetic software version 7.0. (Pharsight Corp., Mountain View, Calif.). A non-compartmental (NCA) approach consistent with the route of administration was used for parameter estimation. […] Whenever possible, mean concentrations were derived from three animals/gender/time point. Parameters were estimated using sampling times relative to the start of each dose administration. […]

[3] = system: hyperoxia-induced lung injury; assay: Wet-dry lung weight ratio in hyperoxia-exposed rats; type: in vivo, Sprague Dawley rats; conditions: 60 hours of hyperoxia (O2 with T3), intraperitoneal T3 12.5 μg/kg body weight each 12 hours, O2 alone 6.61±0.604, p=0.0495
Excerpt: All experimental protocols for animal treatments were approved by the University of Minnesota Institutional Animal Care and Use Committee. […] The room-air control rats were kept in the University animal housing facility. At the end of hyperoxic exposure, rats were sacrificed by intraperitoneal pentobarbital injection, and the lungs were harvested; the right lobes were allocated for histopathology, measurement of lung tissue myeloperoxidase (MPO) activity and wet-to-dry weight ratio. The left lobes underwent bronchoalveolar lavage (BAL) to determine BAL protein concentrations and differential cell counts.
A portion of the right lung was rinsed briefly in PBS, blotted, and then weighed to obtain the “wet” weight. Lungs then were dried in an oven at 80° C. for seven days to obtain the “dry” weight.

For N[C@@H](Cc1cc(I)c(Oc2ccc(O)c(I)c2)c(I)c1)C(=O)O [T3, triiodothyronine], the “phosphorylation of Akt (p-Akt)” value [1] was “augmented phosphorylation of Akt at Ser473”, the concentration at 15 min ([2]; in vivo, male rats, individual animals, 15 min, single intratracheal dose 2.7 μg (~10.0 μg/kg)) was 2.44 ng/mL and the Cl_F_obs ([2]; female) was 30.10 mL/h. It also gave an HL_Lambda_z ([2]; female) of 2.85 h, an AUC(0-t) ([2]; female) of 64.1 ng·h/mL and a Cmax ([2]; female) of 16.5 ng/mL. For the same compound, the Cmax_D ([2]; female) was 6.12 ng/mL/µg, the Tmax ([2]; female) was 2 h and the Vz_F_obs ([2]; female) was 123.60 mL. The Cl_F_obs ([2]; male) was 74.29 mL/h, the HL_Lambda_z ([2]; male) was 3.17 h and the AUC(0-t) ([2]; male) was 25.4 ng·h/mL. The Cmax ([2]; male) was 6.6 ng/mL, the Cmax_D ([2]; male) was 2.44 ng/mL/µg and the Tmax ([2]; male) was 1 h. For the same compound, the Vz_F_obs ([2]; male) was 339.44 mL and the “wet-to-dry lung weight ratio” value [3] was 5.82±0.197.
